Here are results for 8 compounds from US4835190A, “Phenolic thioethers as inhbitors of 5-lipoxygenase” (G. D. Searle & Co., priority 1987, dated 1989).

As a reminder, the IC50 is the concentration that inhibits the measured activity by half. Read a low IC50 as inhibition by little substance.

One experiment has as its target T1, 5-lipoxygenase (Rattus norvegicus, UniProt P12527).
T1 construct: supernatant fraction of Rat Basophilic Leukemia Cell Homogenate (RBL-1) serves as a 5-lipoxygenase enzyme source; endogenous in cells; host or cells: RBL-1 (rat basophilic leukemia) cells, 100,000×g supernatant of homogenate
T1 sequence (P12527 1-673): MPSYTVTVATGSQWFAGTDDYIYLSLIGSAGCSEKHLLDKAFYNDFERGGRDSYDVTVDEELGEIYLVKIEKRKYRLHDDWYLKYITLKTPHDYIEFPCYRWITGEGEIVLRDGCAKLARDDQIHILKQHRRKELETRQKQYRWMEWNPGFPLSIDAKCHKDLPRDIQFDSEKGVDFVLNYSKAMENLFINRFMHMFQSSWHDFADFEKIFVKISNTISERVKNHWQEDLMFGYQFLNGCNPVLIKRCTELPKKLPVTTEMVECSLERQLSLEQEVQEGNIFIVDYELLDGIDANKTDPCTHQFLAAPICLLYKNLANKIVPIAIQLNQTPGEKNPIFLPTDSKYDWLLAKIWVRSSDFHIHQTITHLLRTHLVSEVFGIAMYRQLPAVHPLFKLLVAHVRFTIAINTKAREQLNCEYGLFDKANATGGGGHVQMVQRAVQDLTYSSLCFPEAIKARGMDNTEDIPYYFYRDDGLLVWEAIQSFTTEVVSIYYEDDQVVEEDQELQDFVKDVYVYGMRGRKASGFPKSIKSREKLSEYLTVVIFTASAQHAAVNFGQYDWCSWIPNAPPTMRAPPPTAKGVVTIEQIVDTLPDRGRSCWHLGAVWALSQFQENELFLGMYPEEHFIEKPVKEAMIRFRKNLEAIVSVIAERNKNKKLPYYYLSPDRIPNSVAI
The experiment is described as follows: Inhibition of 5-lipoxygenase, in vitro (5-HETE synthesis, RBL-1 homogenate supernatant). In kind it is biochemical. The settings on record: RBL-1 100,000×g supernatant, [1-14C]-arachidonic acid and Ca++, 5-HETE by TLC; initial screen 1×10^-4 M. How it is done:
The compounds of the invention are evaluated with respect to 5-lipoxygenaseinhibition according to the following assay procedure.
Inhibition of 5-lipoxygenase, in vitro: anti-inflammatory, anti-allergy activities. The 100,000×g supernatant fraction of Rat Basophilic Leukemia Cell Homogenate (RBL-1) serves as a 5-lipoxygenase enzyme source. The enzyme is incubated with [1-^14 C)-arachidonic acid and Ca++ in the presence and absence of test compound. The product of 5-lipoxygenase, 5-hydroxyeicosatetraenoic acid (5-HETE), is separated by thin-layer chromatography and measured by radioactivity. A compound inhibiting 5-HETE synthesis by 30% or more is considered active at that concentration.

The conditions of experiment [1]: versus histamine; cited from earlier work.

Turning to `CC(C)(C)c1cc(S(C)(=O)=O)cc(C(C)(C)C)c1O` [Example 7, 2,6-bis(1,1-dimethylethyl)-4-(methylsulfonyl)phenol], the “5-Lipoxygenase Inhibition, in vitro, IC50” value on 5-lipoxygenase is “Inactive”.

In turn, `C[S+]([O-])c1cc(C(C)(C)C)c(O)c(C(C)(C)C)c1` (centres unmarked) [Example 6, 2,6-bis(1,1-dimethylethyl)-4-(methylsulfinyl)phenol] had an IC50 at 5-lipoxygenase of 100 µM. In the case of `CSc1cc(C(C)(C)C)c(O)c(C(C)(C)C)c1` [Example 5, 2,6-bis(1,1-dimethylethyl)-4-(methylthio)phenol], the IC50 against 5-lipoxygenase is 0.58 µM.

`CSc1c(O)c(C(C)(C)C)cc(C(C)(C)C)c1O` [Example 9, 4,6-bis(1,1-dimethylethyl)-2-(methylthio)-1,3-benzenediol] displayed an IC50 at 5-lipoxygenase of 11 µM.

The compound `CCCCCSc1cc(C(C)(C)C)c(O)c(C(C)(C)C)c1` [Example 3, 2,6-bis(1,1-dimethylethyl)-4-(pentylthio)phenol] yielded an IC50 at 5-lipoxygenase of 1.2 µM.

Take `COc1c(C(C)(C)C)cc(SC)cc1C(C)(C)C` [Example 8, 2,6-bis(1,1-dimethylethyl)-1-methoxy-4-(methylthio)benzene]: the half-maximal inhibitory concentration (IC50) against 5-lipoxygenase came to 100 µM.

At 5-lipoxygenase, `CC(C)Sc1cc(C(C)(C)C)c(O)c(C(C)(C)C)c1` [Example 4, 2,6-bis(1,1-dimethylethyl)-4-[(1-methylethyl)thio]-phenol] came in with an IC50 of 1.3 µM. With `CCCCC/C=C\C\C=C/C=C/C=C/[C@@H](SC[C@H](NC(=O)CC[C@H](N)C(=O)O)C(=O)NCC(=O)O)[C@@H](O)CCCC(=O)O` [LTC4], in experiment [1], the “potency relative to histamine in causing long lasting bronchoconstricting effects” value is recorded as “at least 100 times”.
